Common to all, as to assay type: functional
For one test, the system named is INS1. As to the kind of experiment: INS-1E survival protection against cytokine death – cell-based, luminescence, retest, dose response (AID 449756).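 Further: cell death triggered by IL-1 beta plus TNF-alpha plus IFN-gamma mixture; protective hits raise ATP signal compared with cytokine alone wells.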 The settings on record: Rattus norvegicus.
The target in test [1] is Eukaryotic translation initiation factor 4E (Mus musculus, UniProt P63073). As to the kind of experiment: blockers of eIF4G binding by eIF4E – biochemical, TR-FRET, dose response (AID 855). (TR-FRET usually uses a lanthanide donor and a delayed reading to cut background.);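 further: potency for disrupting eIF4E binding to eIF4GI seen as loss of FRET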
Sequence of Eukaryotic translation initiation factor 4E (P63073 whole entry): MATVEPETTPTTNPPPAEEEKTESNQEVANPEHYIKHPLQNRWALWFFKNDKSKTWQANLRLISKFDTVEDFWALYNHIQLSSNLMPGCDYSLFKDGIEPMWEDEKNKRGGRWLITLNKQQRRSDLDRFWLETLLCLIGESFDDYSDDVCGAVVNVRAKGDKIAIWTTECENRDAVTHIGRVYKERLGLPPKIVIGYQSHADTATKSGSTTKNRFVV
Test [2] addresses Intestinal-type alkaline phosphatase (Mus musculus, UniProt P24822). The test can be described thus: PubChem AID 488874.
Test [3] has as its target Intestinal-type alkaline phosphatase (Homo sapiens, UniProt P09923). The test can be described thus: Dose Response confirmation of uHTS hits from a small molecule inhibitors of human intestinal alkaline phosphatase via a luminescent assay. [Related pubchem assays (depositor defined):AID2544, AID2574].
The target in test [4] is Cyclin-dependent kinase 9 (Homo sapiens, UniProt P50750).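 Further: value from the CDK9 entry of a kinome-spanning kinase panel.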
Sequence of Cyclin-dependent kinase 9 (P50750 whole entry): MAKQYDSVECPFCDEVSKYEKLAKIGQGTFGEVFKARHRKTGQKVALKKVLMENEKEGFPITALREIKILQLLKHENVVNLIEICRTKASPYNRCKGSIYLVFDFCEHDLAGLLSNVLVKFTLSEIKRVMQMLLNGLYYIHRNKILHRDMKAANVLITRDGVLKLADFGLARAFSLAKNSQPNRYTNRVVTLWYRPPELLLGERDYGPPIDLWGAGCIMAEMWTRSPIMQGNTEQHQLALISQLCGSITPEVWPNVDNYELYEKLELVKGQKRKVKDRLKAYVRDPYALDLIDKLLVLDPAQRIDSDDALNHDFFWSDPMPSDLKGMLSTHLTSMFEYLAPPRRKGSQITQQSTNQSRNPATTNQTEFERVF
Test [5] addresses Protein kinase C iota type (Homo sapiens, UniProt P41743).
Test [6] addresses Serine/threonine-protein kinase D3 (Homo sapiens, UniProt O94806).
The target of test [7] is Testis-specific serine/threonine-protein kinase 1 (Homo sapiens, UniProt Q9BXA7).
For test [8], the target named is Cyclin-dependent kinase 8 (Homo sapiens, UniProt P49336). The test can be described thus: Navigating the Kinome. Panel member name: CDK8.
Sequence of Cyclin-dependent kinase 8 (P49336 whole entry): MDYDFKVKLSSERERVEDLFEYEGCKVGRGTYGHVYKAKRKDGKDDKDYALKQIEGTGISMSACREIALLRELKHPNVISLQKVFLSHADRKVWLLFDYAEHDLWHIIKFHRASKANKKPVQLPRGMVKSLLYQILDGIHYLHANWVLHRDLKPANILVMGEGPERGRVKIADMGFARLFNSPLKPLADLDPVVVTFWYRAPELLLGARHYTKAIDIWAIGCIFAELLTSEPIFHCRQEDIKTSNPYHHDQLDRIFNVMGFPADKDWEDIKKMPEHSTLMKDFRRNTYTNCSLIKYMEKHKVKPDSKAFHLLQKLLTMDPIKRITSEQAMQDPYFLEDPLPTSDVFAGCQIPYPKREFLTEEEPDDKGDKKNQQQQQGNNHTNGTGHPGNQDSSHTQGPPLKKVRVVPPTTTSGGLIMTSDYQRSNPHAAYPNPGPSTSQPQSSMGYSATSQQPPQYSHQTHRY
In test [9] the target is Fibroblast growth factor receptor 1 (Homo sapiens, UniProt P11362).
Sequence of Fibroblast growth factor receptor 1 (P11362 whole entry): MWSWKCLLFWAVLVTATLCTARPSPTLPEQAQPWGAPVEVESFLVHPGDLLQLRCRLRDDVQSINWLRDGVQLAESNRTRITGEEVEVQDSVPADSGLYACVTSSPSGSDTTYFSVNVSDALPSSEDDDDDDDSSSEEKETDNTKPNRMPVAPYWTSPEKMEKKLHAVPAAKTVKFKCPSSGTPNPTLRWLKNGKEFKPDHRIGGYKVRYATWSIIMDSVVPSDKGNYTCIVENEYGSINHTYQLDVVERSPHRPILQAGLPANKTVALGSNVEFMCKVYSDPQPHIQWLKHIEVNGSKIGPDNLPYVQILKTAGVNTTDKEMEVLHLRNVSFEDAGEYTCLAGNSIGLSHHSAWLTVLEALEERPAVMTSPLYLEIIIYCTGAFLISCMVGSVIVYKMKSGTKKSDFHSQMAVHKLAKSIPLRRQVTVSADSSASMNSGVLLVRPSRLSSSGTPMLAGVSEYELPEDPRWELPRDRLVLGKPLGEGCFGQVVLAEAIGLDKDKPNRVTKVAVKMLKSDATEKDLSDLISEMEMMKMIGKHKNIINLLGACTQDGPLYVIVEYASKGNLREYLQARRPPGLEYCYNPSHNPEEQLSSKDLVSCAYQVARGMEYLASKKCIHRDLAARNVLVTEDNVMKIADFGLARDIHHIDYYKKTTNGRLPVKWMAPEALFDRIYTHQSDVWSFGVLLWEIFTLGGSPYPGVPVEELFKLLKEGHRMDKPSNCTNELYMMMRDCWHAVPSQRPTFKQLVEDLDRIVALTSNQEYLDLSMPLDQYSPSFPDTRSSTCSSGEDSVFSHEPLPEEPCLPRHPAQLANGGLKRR
In test [10] the target is Tyrosine-protein kinase Lck (Homo sapiens, UniProt P06239).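 Further: lck was assayed as one member of a kinase panel.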
Test [11] deals with Receptor-type tyrosine-protein kinase FLT3 (Homo sapiens, UniProt P36888).
Test [12] has as its target Ribosomal protein S6 kinase beta-1 (Homo sapiens, UniProt P23443).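 Further: measured as one member of a kinome-wide profiling panel.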
The target of test [13] is Non-receptor tyrosine-protein kinase TYK2 (Homo sapiens, UniProt P29597).
In test [14] the target is Maternal embryonic leucine zipper kinase (Homo sapiens, UniProt Q14680).
Sequence of Maternal embryonic leucine zipper kinase (Q14680 whole entry): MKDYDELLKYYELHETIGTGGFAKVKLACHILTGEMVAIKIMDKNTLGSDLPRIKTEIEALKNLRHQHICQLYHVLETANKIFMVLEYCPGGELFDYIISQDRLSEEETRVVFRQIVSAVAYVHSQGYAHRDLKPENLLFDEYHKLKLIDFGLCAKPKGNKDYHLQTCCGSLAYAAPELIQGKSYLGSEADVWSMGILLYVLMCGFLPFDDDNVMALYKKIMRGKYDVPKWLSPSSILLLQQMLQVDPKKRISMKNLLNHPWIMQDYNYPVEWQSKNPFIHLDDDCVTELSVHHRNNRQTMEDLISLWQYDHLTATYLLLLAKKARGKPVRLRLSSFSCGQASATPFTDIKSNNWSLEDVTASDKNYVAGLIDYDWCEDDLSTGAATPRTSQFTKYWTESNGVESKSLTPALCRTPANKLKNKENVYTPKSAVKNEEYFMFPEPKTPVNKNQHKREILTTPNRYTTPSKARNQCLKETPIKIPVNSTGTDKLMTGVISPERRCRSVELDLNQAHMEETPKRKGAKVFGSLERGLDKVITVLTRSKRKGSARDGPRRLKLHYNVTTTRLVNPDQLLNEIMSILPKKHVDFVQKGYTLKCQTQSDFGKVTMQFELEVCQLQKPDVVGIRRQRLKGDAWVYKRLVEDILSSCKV
For test [15], the target named is Proto-oncogene tyrosine-protein kinase ROS (Homo sapiens, UniProt P08922).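 Further: ROS1 tested as one member of a kinome-wide kinase panel.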
In test [16] the target is Receptor tyrosine-protein kinase erbB-4 (Homo sapiens, UniProt Q15303).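 Further: ERBB4 member of a kinome-wide kinase profiling panel.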
Sequence of Receptor tyrosine-protein kinase erbB-4 (Q15303 whole entry): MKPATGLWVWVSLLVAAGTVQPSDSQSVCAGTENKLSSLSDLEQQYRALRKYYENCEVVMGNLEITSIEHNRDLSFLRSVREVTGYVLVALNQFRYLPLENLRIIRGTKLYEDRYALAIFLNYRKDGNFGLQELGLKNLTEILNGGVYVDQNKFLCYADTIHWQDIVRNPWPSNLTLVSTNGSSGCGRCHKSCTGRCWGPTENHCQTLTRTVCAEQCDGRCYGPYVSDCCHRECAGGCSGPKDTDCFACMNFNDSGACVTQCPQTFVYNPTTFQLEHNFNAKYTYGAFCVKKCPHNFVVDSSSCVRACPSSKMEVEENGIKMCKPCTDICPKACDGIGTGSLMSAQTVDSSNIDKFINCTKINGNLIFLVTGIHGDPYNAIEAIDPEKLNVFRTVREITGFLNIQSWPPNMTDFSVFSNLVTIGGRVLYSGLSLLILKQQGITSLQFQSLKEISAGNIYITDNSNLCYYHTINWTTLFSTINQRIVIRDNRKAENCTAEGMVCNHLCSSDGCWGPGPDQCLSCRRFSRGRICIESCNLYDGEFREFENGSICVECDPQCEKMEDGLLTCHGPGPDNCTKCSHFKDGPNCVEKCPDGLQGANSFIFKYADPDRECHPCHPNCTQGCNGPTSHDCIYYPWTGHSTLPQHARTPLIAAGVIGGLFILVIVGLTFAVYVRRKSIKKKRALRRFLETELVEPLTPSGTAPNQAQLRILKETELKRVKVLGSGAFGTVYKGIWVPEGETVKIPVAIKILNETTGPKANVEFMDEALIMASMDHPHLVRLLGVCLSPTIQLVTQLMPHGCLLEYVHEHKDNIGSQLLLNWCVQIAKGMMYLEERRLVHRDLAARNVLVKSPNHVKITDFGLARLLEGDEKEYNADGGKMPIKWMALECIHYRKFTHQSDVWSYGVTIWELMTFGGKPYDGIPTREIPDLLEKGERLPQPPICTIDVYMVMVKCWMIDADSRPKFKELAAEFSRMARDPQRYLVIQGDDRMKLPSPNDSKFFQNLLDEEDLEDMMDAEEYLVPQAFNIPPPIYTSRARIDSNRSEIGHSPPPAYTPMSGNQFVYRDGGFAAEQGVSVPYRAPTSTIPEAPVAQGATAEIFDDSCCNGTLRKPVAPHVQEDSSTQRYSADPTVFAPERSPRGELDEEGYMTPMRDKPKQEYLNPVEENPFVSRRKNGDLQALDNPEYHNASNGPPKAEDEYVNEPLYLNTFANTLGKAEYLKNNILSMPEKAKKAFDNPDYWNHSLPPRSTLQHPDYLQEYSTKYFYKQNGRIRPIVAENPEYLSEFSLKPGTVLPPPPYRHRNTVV
In test [17] the target is MAP kinase-activated protein kinase 3 (Homo sapiens, UniProt Q16644).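 Further: value comes from a kinome-wide profiling panel in which MAPKAPK3 is one of the panel members.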
Test [18] addresses Tyrosine-protein kinase ITK/TSK (Homo sapiens, UniProt Q08881).
Test [19] addresses Homeodomain-interacting protein kinase 4 (Homo sapiens, UniProt Q8NE63).
The target of test [20] is Mitogen-activated protein kinase kinase kinase 20 (Homo sapiens, UniProt Q9NYL2).
In test [21] the target is T1, Carboxy-terminal domain RNA polymerase II polypeptide A small phosphatase 1 (Homo sapiens, UniProt Q9GZU7).
T1 sequence (Q9GZU7 whole entry): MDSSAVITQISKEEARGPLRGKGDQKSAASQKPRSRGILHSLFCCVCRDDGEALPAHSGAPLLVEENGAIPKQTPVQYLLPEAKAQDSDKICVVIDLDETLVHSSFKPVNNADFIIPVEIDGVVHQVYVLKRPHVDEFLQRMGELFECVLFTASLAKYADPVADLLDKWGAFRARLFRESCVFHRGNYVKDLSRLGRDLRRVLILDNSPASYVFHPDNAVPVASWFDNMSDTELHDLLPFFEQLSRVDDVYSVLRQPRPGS
The test can be described thus: CTDSP1 inhibitors, concentration-response, biochemical, absorbance readout, ultra-high-throughput screen actives (AID 540297).

In the next test the target is Genome polyprotein (dengue virus type 2, UniProt P29990). The test can be described thus: flavivirus cap methylation enzyme inhibition – biochemical, confirmation dose response, primary screen (AID 588689).
A further test deals with T2, Hexokinase HKDC1 (Homo sapiens, UniProt Q2TB90).
T2 sequence (Q2TB90 whole entry): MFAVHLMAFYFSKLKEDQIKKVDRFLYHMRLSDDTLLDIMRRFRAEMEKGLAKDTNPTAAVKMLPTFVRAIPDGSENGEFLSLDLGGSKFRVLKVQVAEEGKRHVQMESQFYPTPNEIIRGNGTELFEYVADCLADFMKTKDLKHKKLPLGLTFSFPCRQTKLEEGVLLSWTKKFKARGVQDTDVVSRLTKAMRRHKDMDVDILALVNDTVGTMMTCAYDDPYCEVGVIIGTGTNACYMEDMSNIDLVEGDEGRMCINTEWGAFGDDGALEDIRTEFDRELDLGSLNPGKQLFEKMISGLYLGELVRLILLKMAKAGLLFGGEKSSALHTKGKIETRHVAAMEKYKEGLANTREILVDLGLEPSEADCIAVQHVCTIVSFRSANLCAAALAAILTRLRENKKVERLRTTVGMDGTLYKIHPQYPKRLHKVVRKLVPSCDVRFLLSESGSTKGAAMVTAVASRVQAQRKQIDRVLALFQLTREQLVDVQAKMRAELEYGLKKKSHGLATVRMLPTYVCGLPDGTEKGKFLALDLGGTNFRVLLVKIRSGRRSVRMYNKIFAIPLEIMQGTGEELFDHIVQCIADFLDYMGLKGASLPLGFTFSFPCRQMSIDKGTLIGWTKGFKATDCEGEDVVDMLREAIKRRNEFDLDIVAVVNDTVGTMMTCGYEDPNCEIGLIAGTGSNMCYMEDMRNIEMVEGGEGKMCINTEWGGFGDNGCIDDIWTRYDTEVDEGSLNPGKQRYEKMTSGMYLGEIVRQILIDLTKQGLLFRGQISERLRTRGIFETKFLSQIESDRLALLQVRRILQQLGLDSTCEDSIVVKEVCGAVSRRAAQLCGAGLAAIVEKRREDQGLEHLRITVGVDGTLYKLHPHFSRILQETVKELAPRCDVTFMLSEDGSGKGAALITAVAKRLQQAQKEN
The test can be described thus: analog inhibition of human HKDC1 activity – biochemical, set 2, SAR follow-up (AID 588355).

In the next test the target is SUMO E1/E2 (Homo sapiens, UniProt P63279+Q9UBE0+Q9UBT2). As to the kind of experiment: SAR analysis of SUMOylation using HTRF in an in-Vitro dose response assay. [Related pubchem assays (depositor defined):AID2006, AID2011, AID2018, AID2069, AID2658].

The source made the active and inactive calls.

The results in this text go back to ChEMBL document CHEMBL1201862, “PubChem BioAssay data set” (2004).

Sequence of Protein kinase C iota type (P41743 whole entry): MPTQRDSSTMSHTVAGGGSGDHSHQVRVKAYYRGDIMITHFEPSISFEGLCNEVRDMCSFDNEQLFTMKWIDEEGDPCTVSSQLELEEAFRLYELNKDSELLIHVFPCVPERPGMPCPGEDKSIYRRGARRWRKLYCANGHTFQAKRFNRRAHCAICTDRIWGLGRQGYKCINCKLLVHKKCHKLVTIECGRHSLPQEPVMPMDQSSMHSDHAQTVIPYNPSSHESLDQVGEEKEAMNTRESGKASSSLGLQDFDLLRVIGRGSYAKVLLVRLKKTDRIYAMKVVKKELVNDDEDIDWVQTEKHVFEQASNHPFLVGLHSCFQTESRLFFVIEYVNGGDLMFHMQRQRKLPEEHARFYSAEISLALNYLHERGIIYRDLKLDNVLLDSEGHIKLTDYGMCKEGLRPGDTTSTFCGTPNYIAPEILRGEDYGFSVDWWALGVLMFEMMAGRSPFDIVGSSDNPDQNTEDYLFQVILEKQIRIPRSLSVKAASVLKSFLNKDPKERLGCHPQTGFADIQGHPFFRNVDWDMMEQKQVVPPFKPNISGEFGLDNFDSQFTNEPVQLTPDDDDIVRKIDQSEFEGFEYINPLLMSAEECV
Sequence of Intestinal-type alkaline phosphatase (Mus musculus, UniProt P24822) (P24822 whole entry): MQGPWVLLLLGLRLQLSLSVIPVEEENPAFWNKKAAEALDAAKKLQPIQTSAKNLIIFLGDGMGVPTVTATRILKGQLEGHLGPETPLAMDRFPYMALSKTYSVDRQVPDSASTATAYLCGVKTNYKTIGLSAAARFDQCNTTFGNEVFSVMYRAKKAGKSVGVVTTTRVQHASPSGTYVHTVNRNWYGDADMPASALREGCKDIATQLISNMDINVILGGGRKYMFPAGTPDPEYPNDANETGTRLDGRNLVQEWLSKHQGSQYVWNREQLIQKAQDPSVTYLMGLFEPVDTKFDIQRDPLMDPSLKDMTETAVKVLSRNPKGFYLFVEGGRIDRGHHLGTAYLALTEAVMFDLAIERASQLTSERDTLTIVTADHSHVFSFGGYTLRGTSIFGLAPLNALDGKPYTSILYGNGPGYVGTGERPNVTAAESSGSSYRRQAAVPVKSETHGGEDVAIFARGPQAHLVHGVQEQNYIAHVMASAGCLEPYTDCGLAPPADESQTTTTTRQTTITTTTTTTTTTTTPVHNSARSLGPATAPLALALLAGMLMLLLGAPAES

For `O=C1C=C(N2CCCCC2)c2ccccc2C1=O`, in the test on INS1, the AC50 (usually the concentration at which the activity in the assay is half-maximal) was 4.98 µM (active).

For `O=C(O)C1Nc2c(O)cc(Cl)c([N+](=O)[O-])c2C2C=CCC12` (configuration not stated), the IC50 (usually the concentration that inhibits the measured activity by half) in [1] was 5.21 µM (active).

In the case of `Oc1ccc(N=Nc2c(O)ccc3ccccc23)cc1`, the IC50 was 17.4 µM (active) in test [2] and 17.7 µM (inactive) in test [3].

`Cc1n[nH]c2ccc(-c3cncc(OCC(N)Cc4cccc(Cl)c4)c3)cc12` (configuration not stated): the Ki (in general, the dissociation constant of the complex between target and ligand, obtained from inhibition or displacement) in test [4] was 0.0631 µM (active); in [5], 1 µM (active); in test [6], 0.00398 µM (active); in test [7], 0.1 µM (active); in test [8], 0.00158 µM (active); in test [9], 5.01 µM (active). For the same compound, the Ki in test [10] is > 2.51 µM (inactive); in test [11], 0.158 µM (active); in test [12], 0.0794 µM (active); in test [13], > 2 µM (inactive); in test [14], 0.0794 µM (active); in test [15], 0.631 µM (active). Further, the Ki was > 3.98 µM (inactive) in test [16]; > 10 µM (inactive) in test [17]; > 1.58 µM (inactive) in test [18]; 1.58 µM (active) in test [19]; 7.94 µM (active) in [20]. For the same compound, the negative logarithm of the Ki (pKi) (in general, the Ki on a negative log10 scale, so that one unit is a factor of ten) turned out to be 7.2 in test [4] and 8.8 in [8].

With `O=C1N=C(NS(=O)(=O)Cc2ccccc2)S/C1=C1\C(=O)Nc2ccccc21`, the values for the IC50 (in [21]; at Genome polyprotein) were 16.7 µM (active) and 51.6 µM (active), respectively.

As to `CC(=O)NC1C(=O)N(CCN2CCOCC2)c2ccc(F)cc21` (configuration not stated), the IC50 on Hexokinase HKDC1 is 14.9 µM (active); on SUMO E1/E2 it was 13.4 µM (active).
